Patent US20220411367A1, “ARYLMETHYLENE HETEROCYCLIC COMPOUNDS AS KV1.3 POTASSIUM SHAKER CHANNEL BLOCKERS” (D. E. Shaw Research, LLC, priority 2019, published 2022)
Where two headings read alike, the source gives them in different places.

How the values were obtained:
Kv1.3 potassium channel = target: T1, Kv1.3 potassium channel (Homo sapiens, UniProt P22001); test: Kv1.3 potassium channel blocker activity, automated whole-cell patch clamp (Patchliner); assay type: cell-based; conditions: CHO-K1 cells stably expressing Kv1.3; whole cell current inhibition; read-out: Kvl.3 IC50
T1 construct: expressed in transfected cells
Description: This assay is used to evaluate the disclosed compounds' activities as Kv1.3 potassium channel blockers.
CHO-K1 cells stably expressing Kv1.3 were grown in DMEM containing 10% heat-inactivated FBS, 1 mM Sodium Pyruvate, 2 mM L-Glutamine and G418 (500 μg/ml).
(§1) All compounds were dissolved in DMSO at 30 mM.
The currents were evoked by applying 100 ms depolarizing pulses from −90 mV (holding potential) to +40 mV were applied with 0.1 Hz frequency. […] 10 second breaks were used between pulse trains (see Table A below).
Data were sampled at 10 kHz without filtering. Passive leak currents were subtracted online using a P/4 procedure (HEKA Elektronik Dr. Schulze GmbH). […] Total compound incubation time before the next pulse train was not longer than 10 seconds. Peak current inhibition was observed during compound equilibration.

hERG channel = target: T2, hERG channel (Homo sapiens, UniProt Q12809); test: hERG electrophysiology, automated whole-cell patch clamp (Patchliner); assay type: cell-based; conditions: CHO-K1 cells stably expressing hERG, whole cell current inhibition, read-out: hERG IC50
T2 construct: expressed in transfected cells
Description: as §1
The pulse frequency was 0.3 Hz.
Data were sampled at 10 kHz without filtering.

T1 sequence (P22001 whole entry): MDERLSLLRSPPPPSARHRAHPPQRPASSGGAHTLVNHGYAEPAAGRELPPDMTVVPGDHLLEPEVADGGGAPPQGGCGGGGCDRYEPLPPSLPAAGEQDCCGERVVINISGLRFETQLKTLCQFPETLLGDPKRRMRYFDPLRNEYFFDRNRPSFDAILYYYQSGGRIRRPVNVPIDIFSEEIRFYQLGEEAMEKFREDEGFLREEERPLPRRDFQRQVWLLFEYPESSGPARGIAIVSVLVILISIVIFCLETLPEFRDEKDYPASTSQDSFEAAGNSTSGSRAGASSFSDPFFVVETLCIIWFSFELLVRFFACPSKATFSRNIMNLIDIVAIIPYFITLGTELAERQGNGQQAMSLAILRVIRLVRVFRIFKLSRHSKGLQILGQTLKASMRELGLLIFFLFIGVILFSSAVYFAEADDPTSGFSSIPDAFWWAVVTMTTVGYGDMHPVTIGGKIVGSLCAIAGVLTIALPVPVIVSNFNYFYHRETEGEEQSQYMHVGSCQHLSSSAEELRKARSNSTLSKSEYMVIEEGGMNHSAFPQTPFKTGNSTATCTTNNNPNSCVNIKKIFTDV
T2 sequence (Q12809 whole entry): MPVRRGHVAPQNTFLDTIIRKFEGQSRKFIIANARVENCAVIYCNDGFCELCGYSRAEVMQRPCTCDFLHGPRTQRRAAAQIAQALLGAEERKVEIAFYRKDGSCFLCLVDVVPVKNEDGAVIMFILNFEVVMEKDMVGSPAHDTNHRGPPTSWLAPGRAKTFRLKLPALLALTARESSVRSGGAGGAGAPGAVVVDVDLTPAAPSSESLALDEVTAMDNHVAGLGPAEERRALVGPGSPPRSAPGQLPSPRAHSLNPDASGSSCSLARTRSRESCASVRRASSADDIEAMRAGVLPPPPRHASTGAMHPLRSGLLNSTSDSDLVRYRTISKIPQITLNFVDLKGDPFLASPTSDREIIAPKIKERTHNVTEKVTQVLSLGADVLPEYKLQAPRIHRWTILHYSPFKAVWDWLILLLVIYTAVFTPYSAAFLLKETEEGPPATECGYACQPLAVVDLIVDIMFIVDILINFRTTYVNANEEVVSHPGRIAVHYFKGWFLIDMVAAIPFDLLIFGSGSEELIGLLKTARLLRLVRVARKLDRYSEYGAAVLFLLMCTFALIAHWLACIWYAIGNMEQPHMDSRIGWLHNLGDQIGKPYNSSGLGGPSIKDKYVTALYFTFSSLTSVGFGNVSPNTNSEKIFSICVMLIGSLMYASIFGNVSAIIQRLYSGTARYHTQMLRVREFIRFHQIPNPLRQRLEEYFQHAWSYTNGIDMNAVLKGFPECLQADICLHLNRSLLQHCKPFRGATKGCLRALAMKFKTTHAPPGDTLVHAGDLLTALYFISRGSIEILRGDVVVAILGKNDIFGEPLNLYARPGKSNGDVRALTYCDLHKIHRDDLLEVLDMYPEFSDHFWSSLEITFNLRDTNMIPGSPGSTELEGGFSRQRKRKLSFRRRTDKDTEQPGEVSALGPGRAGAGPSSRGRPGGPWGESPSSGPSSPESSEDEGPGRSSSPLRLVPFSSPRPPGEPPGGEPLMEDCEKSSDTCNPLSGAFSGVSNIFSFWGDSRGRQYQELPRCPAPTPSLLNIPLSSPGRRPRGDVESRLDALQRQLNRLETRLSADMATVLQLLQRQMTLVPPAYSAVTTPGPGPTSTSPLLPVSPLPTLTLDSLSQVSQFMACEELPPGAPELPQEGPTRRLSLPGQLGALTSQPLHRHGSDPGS

SMILES	IC50 (Kv1.3 potassium channel)	IC50 (hERG channel)	IC50 (hERG channel; human, pH 7.4)
CCC(c1cc(Cl)c(Cl)cc1O)N1CCC(CO)CC1 (stereo not drawn) [Compound 18, 4,5-dichloro-2-[1-[4-(hydroxymethyl)piperidin-1-yl]propyl]phenol]	< 10 µM	< 30 µM	–
Oc1cc(Cl)c(Cl)cc1CN1CCC2(CCO2)CC1 [Compound 57, 4,5-dichloro-2-[1-oxa-7-azaspiro[3.5]nonan-7-ylmethyl]phenol]	< 10 µM	< 30 µM	–
OCC1(c2ccccc2)CCN(Cc2cc(Cl)c(Cl)cc2O)CC1 [Compound 22, 4,5-dichloro-2-[[4-(hydroxymethyl)-4-phenylpiperidin-1-yl]methyl]phenol]	< 1 µM	< 30 µM	–
NCC1(N)CCN(Cc2cc(Cl)c(Cl)cc2O)CC1 [Compound 3, 2-((4-amino-4-(aminomethyl)piperidin-1-yl)methyl)-4,5-dichlorophenol]	< 1 µM	< 30 µM	–
Cc1cc(O)c(CN2CCC(CO)CC2)cc1Cl [Compound 19, 4-chloro-2-[[4-(hydroxymethyl)piperidin-1-yl]methyl]-5-methylphenol]	< 1 µM	> 30 µM	–
Oc1cc(Cl)c(Cl)cc1CN1CCC2(CC1)COC2 [Compound 51, 4,5-dichloro-2-[2-oxa-7-azaspiro [3.5]nonan-7-ylmethyl] phenol]	< 10 µM	< 30 µM	–
Oc1cc(Cl)c(Cl)cc1CN1CCC2(CC1)OCCC2O (stereo not drawn) [Compound 26, 8-(4,5-dichloro-2-hydroxybenzyl)-1-oxa-8-azaspiro[4.5]decan-4-ol]	< 1 µM	< 30 µM	–
NC1(CO)CCN(Cc2cc(Cl)c(Cl)cc2O)CC1 [Compound 14, 2-[[4-amino-4-(hydroxymethyl)piperidin-1-yl]methyl]-4,5-dichlorophenol]	< 1 µM	< 30 µM	–
NCC1(O)CCN(Cc2cc(Cl)c(Cl)cc2O)CC1 [Compound 9, 4-(aminomethyl)-1-[(4,5-dichloro-2-hydroxyphenyl)methyl]piperidin-4-ol trifluoroacetic acid]	< 1 µM	< 30 µM	–
CC(=O)NCC1(CO)CCN(Cc2cc(Cl)c(Cl)cc2O)CC1 [Compound 21, N-([1-[(4,5-dichloro-2-hydroxyphenyl)methyl]-4-(hydroxymethyl)piperidin-4-yl]methyl)acetamide]	< 1 µM	< 30 µM	–
CC(=O)NC1(CO)CCN(Cc2cc(Cl)c(Cl)cc2O)CC1 [Compound 12, N-[1-[(4,5-dichloro-2-hydroxyphenyl)methyl]-4-(hydroxymethyl)piperidin-4-yl]acetamide]	< 1 µM	> 30 µM	–

Further lines, with some results ahead:

IC50 (Kv1.3 potassium channel)	SMILES	IC50 (hERG channel)	IC50 (hERG channel; human, pH 7.4)
< 10 µM	OCC1CCN(Cc2cc(Cl)c(Cl)cc2O)CC1 [Compound 65, 4,5-dichloro-2-((4-(hydroxymethyl)piperidin-1-yl)methyl)phenol]	< 30 µM	–
< 10 µM	OCC1CN(Cc2cc(Cl)c(Cl)cc2O)CCO1 (stereo not drawn) [Compound 52, 4,5-dichloro-2-[[2-(hydroxymethyl)morpholin-4-yl]methyl]phenol]	–	30 µM
< 10 µM	COCC1CCN(Cc2cc(Cl)c(Cl)cc2O)CC1 [Compound 56, 4,5-dichloro-2-[[4-(methoxymethyl)piperidin-1-yl]methyl]phenol]	< 30 µM	–
< 10 µM	CC1CCN(Cc2cc(Cl)c(Cl)cc2O)CC1 [Compound 64, 4,5-dichloro-2-((4-methylpiperidin-1-yl)methyl)phenol]	< 30 µM	–
< 10 µM	CC(C)(O)C1CCN(Cc2cc(Cl)c(Cl)cc2O)CC1 [Compound 50, 4,5-dichloro-2-[[4-(2-hydroxypropan-2-yl)piperidin-1-yl]methyl]phenol]	< 30 µM	–
< 10 µM	Oc1cc(Cl)c(Cl)cc1CN1CCC(O)CC1 [Compound 55, 1-[(4,5-dichloro-2-hydroxyphenyl)methyl] piperidin-4-ol]	< 30 µM	–
< 1 µM	OCC1CCN(Cc2cc(Br)c(Br)cc2O)CC1 [Compound 60, 4,5-dibromo-2-((4-(hydroxymethyl)piperidin-1-yl)methyl)phenol]	< 30 µM	–
< 10 µM	NC(=O)C1CCN(Cc2cc(Cl)c(Cl)cc2O)CC1 [Compound 62, l-(4,5-dichloro-2-hydroxybenzyl) piperidine-4-carboxamide]	< 30 µM	–
< 10 µM	Oc1cc(Cl)c(Cl)cc1CN1CCC(C2COC2)CC1 [Compound 42, 4,5-dichloro-2-[[4-(oxetan-3-yl)piperidin-1-yl]methyl]phenol]	< 30 µM	–
< 10 µM	Oc1cc(Cl)c(Cl)cc1CN1CCc2[nH]ncc2C1 [Compound 25, 4,5-dichloro-2-((6,7-dihydro-1H-pyrazolo[4,3-c]pyridin-5(4H)-yl)methyl)phenol]	< 30 µM	–
< 10 µM	N#CC1(CO)CCN(Cc2cc(Cl)c(Cl)cc2O)CC1 [Compound 54, 1-[(4,5-dichloro-2-hydroxyphenyl)methyl]-4-(hydroxymethyl)piperidine-4-carbonitrile]	< 30 µM	–
< 10 µM	O=C(N1CCOCC1)N1CCN(Cc2cc(Cl)c(Cl)cc2O)CC1 [Compound 58, (4-(4,5-dichloro-2-hydroxybenzyl)piperazin-1-yl)(morpholino) methanone]	< 30 µM	–
< 10 µM	OCC1CN(Cc2cc(Cl)c(Cl)cc2O)C1 [Compound 32, 4,5-dichloro-2-[[3-(hydroxymethyl)azetidin-1-yl]methyl]phenol]	< 30 µM	–
